Source: patent publication US9409924B2, “Selective glycosidase inhibitors and uses thereof” (Alectos Therapeutics Inc., priority 2011, dated 2016)

Tests used:
[1] = Assay for determination of apparent permeability (Papp), bi-directional transport; format: in vitro ADME; settings: pig, LLC-PK1; 1 μM test compound, t=3 h, average of A to B and B to A; read-out: Papp LLC-PK1 cells
Method: Assay for Determination of Apparent Permeability (Papp)
Bi-directional transport was evaluated in LLC-PK1 cells in order to determine apparent permeability (Papp). LLC-PK1 cells can form a tight monolayer and therefore can be used to assess vectorial transport of compounds from basolateral to apical (B→A) and from apical to basolateral (A→B).
To determine Papp, LLC-PK1 cells were cultured in 96-well transwell culture plates (Millipore). Solutions containing the test compounds (1 μM) were prepared in Hank's Balanced Salt Solution with 10 mM HEPES. Substrate solution (150 μL) was added to either the apical (A) or the basolateral (B) compartment of the culture plate, and buffer (150 μL) was added to the compartment opposite to that containing the compound. At t=3 h, 50 μL samples were removed from both sides of monolayers dosed with test compound and placed in 96 well plates, scintillant (200 μL) or internal standard (100 μL labetolol 1 μM) was added to the samples and concentration was determined by liquid scintillation counting in a MicroBeta Wallac Trilux scintillation counter (Perkin Elmer Life Sciences, Boston, Mass.) or by LCMS/MS (Applied Biosystems SCIEX API 5000 triple quadruple mass spectrometer). [^3H]Verapamil (1 μM) was used as the positive control. The experiment was performed in triplicate.
[formula] Where: Volume of Receptor Chamber was 0.15 mL; Area of membrane was 0.11 cm^2; the Initial Concentration is the sum of the concentration measured in the donor plus concentration measured in receiver compartments at t=3 h; A in Concentration is concentration in the receiver compartment at 3 h; and Δ in Time is the incubation time (3×60×60=10800 s). Papp was expressed as 10^−6 cm/s.

human O-GlcNAcase = human O-GlcNAcase (Homo sapiens (Human), UniProt O60502); assay: Assay for determination of KI values for inhibition of O-GlcNAcase activity (fluorescence-based hOGA); format: biochemical; settings: purified human O-GlcNAcase, 4-Methylumbelliferyl N-acetyl-β-D-glucosaminide substrate, pH 7.0, Cheng-Prusoff
Method: Assay for Determination of KI Values for Inhibition of O-GlcNAcase Activity
Experimental Procedure for Kinetic Analyses:
Enzymatic reactions were carried out in a reaction containing 50 mM NaH2PO4, 100 mM NaCl and 0.1% BSA (pH 7.0) using 2 mM 4-Methylumbelliferyl N-acetyl-β-D-glucosaminide dihydrate (Sigma M2133) dissolved in ddH2O, as a substrate. The amount of purified human O-GlcNAcase enzyme used in the reaction was 0.7 nM. Test compound of varying concentrations was added to the enzyme prior to initiation of the reaction. The reaction was performed at room temperature in a 96-well plate and was initiated with the addition of substrate. […] The slope of product production was determined for each concentration of compound tested and plotted, using standard curve fitting algorithms for sigmoidal dose response curves. The values for a four parameter logistic curve fit of the data were determined.

O-GlcNAcase = O-GlcNAcase (Rattus norvegicus (Rat), UniProt Q8VIJ5); assay: Cell-based ELISA of O-GlcNAcylated protein (RL-2 antibody) for cellular activity of O-GlcNAcase inhibitors; settings: rat PC-12 cells, 24 h treatment, O-GlcNAcylated protein detected with RL-2 antibody
From the text: Assay for Determination of Cellular Activity for Compounds that Inhibit O-GlcNAcase Activity
Inhibition of O-GlcNAcase, which removes O-GlcNAc from cellular proteins, results in an increase in the level of O-GlcNAcylated protein in cells. An increase in O-GlcNAcylated protein can be measured by an antibody, such as RL-2, that binds to O-GlcNAcylated protein. The amount of O-GlcNAcylated protein:RL2 antibody interaction can be measured by enzyme linked immunosorbant assay (ELISA) procedures.
A variety of tissue culture cell lines, expressing endogenous levels of O-GlcNAcase, can be utilized; examples include rat PC-12, and human U-87, or SK—N—SH cells. […] Compounds to be tested were dissolved in DMSO, either 2 or 10 mM stock solution, and then diluted with DMSO and water in a two-step process using a Tecan workstation. […] To prepare a cell lysate, the media from compound treated cells was removed, the cells were washed once with phosphate buffered saline (PBS) and then lysed for 5 minutes at room temperature in 50 μL of Phosphosafe reagent (Novagen Inc, Madison, Wis.) with protease inhibitors and PMSF. The cell lysate was collected and transferred to a new plate, which was then either coated to assay plates directly or frozen −80° C. until used in the ELISA procedure. If desired, the total protein concentration of samples was determined using 20 μL of the sample using the BCA method.
The ELISA portion of the assay was performed in a black Maxisorp 96-well plate that was coated overnight at 4° C. with 100 μL/well of the cell lysate (1:10 dilution of the lysate with PBS containing protease inhibitors, phosphatase inhibitors, and PMSF). […]
The amount of O-GlcNAcylated protein, as detected by the ELISA assay, was plotted for each concentration of test compound using standard curve fitting algorithms for sigmoidal dose response curves. The values for a four parameter logistic curve fit of the data were determined, with the inflection point of the curve being the potency value for the test compound.

Sequence of O-GlcNAcase (Q8VIJ5 whole entry): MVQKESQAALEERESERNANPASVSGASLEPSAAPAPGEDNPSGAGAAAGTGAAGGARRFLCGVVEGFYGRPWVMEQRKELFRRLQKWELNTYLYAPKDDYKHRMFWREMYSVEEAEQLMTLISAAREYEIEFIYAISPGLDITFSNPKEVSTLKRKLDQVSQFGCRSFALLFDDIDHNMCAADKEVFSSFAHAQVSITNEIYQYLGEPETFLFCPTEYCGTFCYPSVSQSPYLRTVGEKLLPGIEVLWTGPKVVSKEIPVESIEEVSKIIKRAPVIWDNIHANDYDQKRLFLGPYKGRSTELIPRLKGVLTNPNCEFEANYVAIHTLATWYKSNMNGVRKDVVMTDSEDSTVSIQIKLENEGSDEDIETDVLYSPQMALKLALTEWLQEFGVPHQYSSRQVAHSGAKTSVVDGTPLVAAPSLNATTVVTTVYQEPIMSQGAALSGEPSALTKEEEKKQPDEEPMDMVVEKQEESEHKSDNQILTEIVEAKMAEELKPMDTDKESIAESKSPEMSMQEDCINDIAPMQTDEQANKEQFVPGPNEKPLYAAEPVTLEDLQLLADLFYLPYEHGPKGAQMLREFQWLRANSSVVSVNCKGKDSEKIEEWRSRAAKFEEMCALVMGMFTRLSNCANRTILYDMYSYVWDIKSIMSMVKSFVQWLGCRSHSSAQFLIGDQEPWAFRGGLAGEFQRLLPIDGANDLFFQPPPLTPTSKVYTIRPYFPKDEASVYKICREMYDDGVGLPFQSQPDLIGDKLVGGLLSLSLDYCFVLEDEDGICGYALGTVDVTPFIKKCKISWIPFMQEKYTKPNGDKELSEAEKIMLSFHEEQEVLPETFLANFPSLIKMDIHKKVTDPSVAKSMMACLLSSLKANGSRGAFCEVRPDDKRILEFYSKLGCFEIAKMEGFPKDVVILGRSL
Sequence of human O-GlcNAcase (O60502 whole entry): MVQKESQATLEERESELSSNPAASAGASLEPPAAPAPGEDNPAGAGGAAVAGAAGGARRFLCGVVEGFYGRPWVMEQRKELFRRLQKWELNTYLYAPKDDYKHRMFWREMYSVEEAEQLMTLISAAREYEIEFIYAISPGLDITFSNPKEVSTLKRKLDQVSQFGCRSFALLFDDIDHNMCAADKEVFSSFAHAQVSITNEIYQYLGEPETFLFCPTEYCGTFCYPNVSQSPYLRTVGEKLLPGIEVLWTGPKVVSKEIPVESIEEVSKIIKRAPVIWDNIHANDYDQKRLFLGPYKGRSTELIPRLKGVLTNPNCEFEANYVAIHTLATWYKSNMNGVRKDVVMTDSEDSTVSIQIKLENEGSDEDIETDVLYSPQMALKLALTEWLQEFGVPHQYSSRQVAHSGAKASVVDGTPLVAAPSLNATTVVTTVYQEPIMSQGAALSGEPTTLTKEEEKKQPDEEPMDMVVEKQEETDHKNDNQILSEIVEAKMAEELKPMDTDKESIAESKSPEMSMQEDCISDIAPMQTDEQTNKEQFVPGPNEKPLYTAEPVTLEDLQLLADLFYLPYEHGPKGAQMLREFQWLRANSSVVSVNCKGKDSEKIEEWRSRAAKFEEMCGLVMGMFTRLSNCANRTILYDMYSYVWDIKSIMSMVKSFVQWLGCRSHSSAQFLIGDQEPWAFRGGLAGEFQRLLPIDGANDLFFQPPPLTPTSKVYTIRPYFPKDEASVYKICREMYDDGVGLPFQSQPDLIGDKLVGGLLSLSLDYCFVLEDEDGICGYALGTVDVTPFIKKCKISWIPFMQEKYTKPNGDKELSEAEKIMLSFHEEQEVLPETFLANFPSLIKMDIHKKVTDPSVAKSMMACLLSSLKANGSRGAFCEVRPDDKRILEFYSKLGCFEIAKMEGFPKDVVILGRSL

| Structure (SMILES) | Papp at 3 h, 1 μM [1] [×10⁻⁶ cm/s] | Ki (human O-GlcNAcase) [nM] | EC50 (O-GlcNAcase) [nM] |
| --- | --- | --- | --- |
| CCNC1=N[C@@H]2[C@@H](F)[C@H](O)[C@@H]([C@H](C)O)O[C@@H]2S1 [Example 3, (3aR,5R,6R,7R,7aR)-2-(ethylamino)-7-fluoro-5-((S)-1-hydroxyethyl)-5,6,7,7a-tetrahydro-3aH-pyrano[3,2-d]thiazol-6-ol] | 5.2 | 12 |  |
| C[C@H](O)[C@H]1O[C@@H]2SC(N(C)C)=N[C@@H]2[C@@H](F)[C@@H]1O [Example 5, (3aR,5R,6R,7R,7aR)-2-(dimethylamino)-7-fluoro-5-((S)-1-hydroxyethyl)-5,6,7,7a-tetrahydro-3aH-pyrano[3,2-d]thiazol-6-ol] | 14 | 16 |  |
| CN(C)C1=N[C@@H]2[C@@H](F)[C@H](O)[C@@H]([C@@H](O)C(F)(F)F)O[C@@H]2S1 [Example 11, (3aR,5S,6R,7R,7aR)-2-(dimethylamino)-7-fluoro-5-((R)-2,2,2-trifluoro-1-hydroxyethyl)-5,6,7,7a-tetrahydro-3aH-pyrano[3,2-d]thiazol-6-ol] | 23 | 9.5 |  |
| CC[C@H]1O[C@@H]2SC(NC)=N[C@@H]2[C@@H](F)[C@@H]1O [Example 15, (3aR,5R,6R,7R,7aR)-5-ethyl-7-fluoro-2-(methylamino)-5,6,7,7a-tetrahydro-3aH-pyrano[3,2-d]thiazol-6-ol] | 34 | 156 |  |
| O[C@H]1[C@H](F)[C@H]2N=C(N3CCC3)S[C@H]2O[C@@H]1[C@@H](O)C(F)(F)F [Example 32, (3aR,5S,6R,7R,7aR)-2-(azetidin-1-yl)-7-fluoro-5-((R)-2,2,2-trifluoro-1-hydroxyethyl)-5,6,7,7a-tetrahydro-3aH-pyrano[3,2-d]thiazol-6-ol] | 21 | 13 |  |
| CCNC1=N[C@@H]2[C@H](F)[C@H](O)[C@@H]([C@@H](C)O)O[C@@H]2S1 [Example 37, (3aR,5R,6R,7S,7aR)-2-(ethylamino)-7-fluoro-5-((R)-1-hydroxyethyl)-5,6,7,7a-tetrahydro-3aH-pyrano[3,2-d]thiazol-6-ol] | 2.1 | 266 |  |
| CC[C@H]1O[C@@H]2SC(NC)=N[C@@H]2[C@H](F)[C@@H]1O [Example 42, (3aR,5R,6R,7S,7aR)-5-ethyl-7-fluoro-2-(methylamino)-5,6,7,7a-tetrahydro-3aH-pyrano[3,2-d]thiazol-6-ol] |  | 50 |  |

Other lines, results leading:

| Papp at 3 h, 1 μM [1] [×10⁻⁶ cm/s] | Ki (human O-GlcNAcase) [nM] | EC50 (O-GlcNAcase) [nM] | Structure (SMILES) |
| --- | --- | --- | --- |
| 3.3 |  |  | CNC1=N[C@@H]2[C@@H](F)[C@H](O)[C@@H]([C@H](C)O)O[C@@H]2S1 [Example 1, (3aR,5R,6R,7R,7aR)-7-fluoro-5-((S)-1-hydroxyethyl)-2-(methylamino)-5,6,7,7a-tetrahydro-3aH-pyrano[3,2-d]thiazol-6-ol] |
| 15 | 16 |  | CCNC1=N[C@@H]2[C@@H](F)[C@H](O)[C@@H]([C@@H](O)C(F)(F)F)O[C@@H]2S1 [Example 7, (3aR,5S,6R,7R,7aR)-2-(ethylamino)-7-fluoro-5-((R)-2,2,2-trifluoro-1-hydroxyethyl)-5,6,7,7a-tetrahydro-3aH-pyrano[3,2-d]thiazol-6-ol] |
| 6.6 | 3.5 | 74 | CNC1=N[C@@H]2[C@@H](F)[C@H](O)[C@@H]([C@@H](O)C(F)(F)F)O[C@@H]2S1 [Example 9, (3aR,5S,6R,7R,7aR)-7-fluoro-2-(methylamino)-5-((R)-2,2,2-trifluoro-1-hydroxyethyl)-5,6,7,7a-tetrahydro-3aH-pyrano[3,2-d]thiazol-6-ol] |
| 2.3 | 26 |  | CCNC1=N[C@@H]2C[C@H](O)[C@@H]([C@H](C)O)O[C@@H]2S1 [Example 13, (3aR,5R,6S,7aR)-2-(ethylamino)-5-((S)-1-hydroxyethyl)-5,6,7,7a-tetrahydro-3aH-pyrano[3,2-d]thiazol-6-ol] |
| 3.4 | 3.5 | 50 | CNC1=N[C@@H]2C[C@H](O)[C@@H]([C@@H](O)C(F)(F)F)O[C@@H]2S1 [Example 20, (3aR,5S,6S,7aR)-2-(methylamino)-5-((R)-2,2,2-trifluoro-1-hydroxyethyl)-5,6,7,7a-tetrahydro-3aH-pyrano[3,2-d]thiazol-6-ol] |
|  | 492 |  | CNC1=N[C@@H]2C[C@H](O)[C@@H]([C@@](C)(O)C(F)(F)F)O[C@@H]2S1 [Example 29, (3aR,5S,6S,7aR)-2-(methylamino)-5-((R)-1,1,1-trifluoro-2-hydroxypropan-2-yl)-5,6,7,7a-tetrahydro-3aH-pyrano[3,2-d]thiazol-6-ol] |
| 1.9 |  |  | CNC1=N[C@@H]2[C@H](F)[C@H](O)[C@@H]([C@H](C)O)O[C@@H]2S1 [Example 34, (3aR,5R,6R,7S,7aR)-7-fluoro-5-((S)-1-hydroxyethyl)-2-(methylamino)-5,6,7,7a-tetrahydro-3aH-pyrano[3,2-d]thiazol-6-ol] |
| 3.7 | 0.7 | 9.1 | CNC1=N[C@@H]2[C@H](F)[C@H](O)[C@@H]([C@@H](O)C(F)(F)F)O[C@@H]2S1 [Example 38, (3aR,5S,6R,7S,7aR)-7-fluoro-2-(methylamino)-5-((R)-2,2,2-trifluoro-1-hydroxyethyl)-5,6,7,7a-tetrahydro-3aH-pyrano[3,2-d]thiazol-6-ol] |
| 2.4 | 390 |  | CNC1=N[C@@H]2[C@H](F)[C@H](O)[C@@H](C(C)(C)O)O[C@@H]2S1 [Example 43, (3aR,5S,6R,7S,7aR)-7-fluoro-5-(2-hydroxypropan-2-yl)-2-(methylamino)-5,6,7,7a-tetrahydro-3aH-pyrano[3,2-d]thiazol-6-ol] |
